Data as given in PMC5004176, “The antifungal plant defensin AtPDF2.3 from Arabidopsis thaliana blocks potassium channels” (Scientific Reports, 2016).
Ends that are not written are not given here.

What was measured:
[1] = system: Saccharomyces cerevisiae BY4741 ∆vhc1; assay: Yeast growth inhibitory assay; type: cell-based; settings: BY4741 ∆vhc1, MM medium, 24 hours, OD490nm, mean ± SEM, n ≥ 3; read-out: IC50 (growth inhibition)
[2] = system: Saccharomyces cerevisiae BY4741 ∆trk2; assay: Yeast growth inhibitory assay; type: cell-based; settings: BY4741 ∆trk2, MM medium, 24 hours, OD490nm, mean ± SEM, n ≥ 3; read-out: IC50 (growth inhibition)
[3] = system: Kv4.2; assay: Two-electrode voltage-clamp on Kv4.2 expressed in X. laevis oocytes; settings: 3 μM, n ≥ 3
Procedure: (§1) For the expression of the voltage-gated potassium channels (rKv1.1, rKv1.2, hKv1.3, rKv1.4, rKv1.5, rKv1.6, Shaker IR, hKv3.1, rKv4.3, and hERG) in Xenopus laevis oocytes, the linearized plasmids were transcribed using the T7 or SP6 mMESSAGE-mMACHINE transcription kit (Ambion). The harvesting of stage V–VI oocytes from an anaesthetized female X. laevis frog was previously described[59]. Oocytes were injected with 50 nL of cRNA at a concentration of 1 ng/nL using a micro-injector (Drummond Scientific, USA). The oocytes were incubated in a solution containing (in mM): NaCl, 96; KCl, 2; CaCl2, 1.8; MgCl2, 2 and HEPES, 5 (pH 7.4), supplemented with 50 mg/L gentamycin sulfate.
(§2) Two-electrode voltage-clamp recordings were performed at room temperature (18–22 °C) using a Geneclamp 500 amplifier (Molecular Devices, USA) controlled by a pClamp data acquisition system (Axon Instruments, USA). Whole cell currents from oocytes were recorded 1–4 days after injection. Bath solution composition was ND96 (in mM): NaCl, 96; KCl, 2; CaCl2, 1.8; MgCl2, 2 and HEPES, 5 (pH 7.4) or HK (in mM): NaCl, 2; KCl, 96; CaCl2, 1.8; MgCl2, 2 and HEPES, 5 (pH 7.4). Voltage and current electrodes were filled with 3 M KCl. Resistances of both electrodes were kept between 0.7 and 1.5 MΩ. […] GV curves were calculated from IV relationships as follows: gK = IK/(Em−EK) with EK = (RT/zF)ln[K #0]o/[K #0]i. […]

[4] = system: Saccharomyces cerevisiae BY4741 ∆ppz2; assay: Yeast growth inhibitory assay; type: cell-based; settings: BY4741 ∆ppz2, MM medium, 24 hours, OD490nm, mean ± SEM, n ≥ 3; read-out: IC50 (growth inhibition)
[5] = system: Saccharomyces cerevisiae BY4741 ∆trk1; assay: Yeast growth inhibitory assay; type: cell-based; settings: BY4741 ∆trk1, MM medium, 24 hours, OD490nm, mean ± SEM, n ≥ 3; read-out: IC50 (growth inhibition)
[6] = system: Saccharomyces cerevisiae BY4741 ∆ppz1; assay: Yeast growth inhibitory assay; type: cell-based; settings: BY4741 ∆ppz1, MM medium, 24 hours, OD490nm, mean ± SEM, n ≥ 3; read-out: IC50 (growth inhibition)
[7] = system: Saccharomyces cerevisiae BY4741 WT; assay: Yeast growth inhibitory assay; type: cell-based; settings: MM medium, ~10^6 cells/mL, 24 hours, OD490nm, mean ± SEM, n ≥ 3, read-out: IC50 (growth inhibition)
[8] = system: Kv1.3; assay: Two-electrode voltage-clamp on Kv1.3 expressed in X. laevis oocytes; settings: 3 μM, n ≥ 3
Procedure: as §1, §2

[9] = system: Fusarium oxysporum; assay: Fungal growth inhibitory assay; type: cell-based; settings: half strength PDB, 10^4 spores/mL, 48 hours, determined microscopically, n ≥ 3; read-out: IC50 (growth inhibition)
[10] = system: Nav1.5; assay: Two-electrode voltage-clamp on Nav1.5 expressed in X. laevis oocytes; type: cell-based; settings: 5 μM, n ≥ 4
[11] = system: Kv1.1; assay: Two-electrode voltage-clamp on Kv1.1 expressed in X. laevis oocytes; settings: 3 μM, n ≥ 3
Procedure: as §1, §2

[12] = system: Kv1.5; assay: Two-electrode voltage-clamp on Kv1.5 expressed in X. laevis oocytes; settings: 3 μM, n ≥ 3
Procedure: as §1, §2

[13] = system: insect channel DmNav1; assay: Two-electrode voltage-clamp on DmNav1 expressed in X. laevis oocytes; type: cell-based; settings: 5 μM, n ≥ 4
[14] = system: Saccharomyces cerevisiae BY4741 ∆kch1; assay: Yeast growth inhibitory assay; type: cell-based; settings: BY4741 ∆kch1, MM medium, 24 hours, OD490nm, mean ± SEM, n ≥ 3; read-out: IC50 (growth inhibition)
[15] = system: Kv2.1; assay: Two-electrode voltage-clamp on Kv2.1 expressed in X. laevis oocytes; settings: 3 μM, n ≥ 3
Procedure: as §1, §2

[16] = system: Botrytis cinerea R16; assay: Fungal growth inhibitory assay; type: cell-based; settings: half strength PDB, 10^4 spores/mL, 48 hours, determined microscopically, n ≥ 3; read-out: IC50 (growth inhibition)
[17] = system: Kv1.4; assay: Two-electrode voltage-clamp on Kv1.4 expressed in X. laevis oocytes; settings: 3 μM, n ≥ 3
Procedure: as §1, §2

[18] = system: Saccharomyces cerevisiae BY4741 ∆nha1; assay: Yeast growth inhibitory assay; type: cell-based; settings: BY4741 ∆nha1, MM medium, 24 hours, OD490nm, mean ± SEM, n ≥ 3; read-out: IC50 (growth inhibition)
[19] = system: Botrytis cinerea B05.10; assay: Fungal growth inhibitory assay; type: cell-based; settings: half strength PDB, 10^4 spores/mL, 48 hours, determined microscopically, n ≥ 3; read-out: IC50 (growth inhibition)
[20] = system: Saccharomyces cerevisiae BY4741 ∆qdr2; assay: Yeast growth inhibitory assay; type: cell-based; settings: BY4741 ∆qdr2, MM medium, 24 hours, OD490nm, mean ± SEM, n ≥ 3; read-out: IC50 (growth inhibition)
[21] = system: Saccharomyces cerevisiae BY4743 WT; assay: Yeast growth inhibitory assay; type: cell-based; settings: MM medium, 24 hours, OD490nm, mean ± SEM, n ≥ 3, read-out: IC50 (growth inhibition)
[22] = system: Shaker IR; assay: Two-electrode voltage-clamp on Shaker IR expressed in X. laevis oocytes; settings: 3 μM, n ≥ 3
Procedure: as §1, §2

[23] = system: Fusarium culmorum; assay: Fungal growth inhibitory assay; type: cell-based; settings: half strength PDB, 10^4 spores/mL, 48 hours, determined microscopically, n ≥ 3; read-out: IC50 (growth inhibition)
[24] = system: Kv1.2 channels; assay: Two-electrode voltage-clamp on Kv1.2 expressed in X. laevis oocytes; settings: for inhibition of the potassium current: Kv1.2, n ≥ 5
Procedure: as §1
Two-electrode voltage-clamp recordings were performed at room temperature (18–22 °C) using a Geneclamp 500 amplifier (Molecular Devices, USA) controlled by a pClamp data acquisition system (Axon Instruments, USA). Whole cell currents from oocytes were recorded 1–4 days after injection. Bath solution composition was ND96 (in mM): NaCl, 96; KCl, 2; CaCl2, 1.8; MgCl2, 2 and HEPES, 5 (pH 7.4) or HK (in mM): NaCl, 2; KCl, 96; CaCl2, 1.8; MgCl2, 2 and HEPES, 5 (pH 7.4). Voltage and current electrodes were filled with 3 M KCl. Resistances of both electrodes were kept between 0.7 and 1.5 MΩ. The elicited currents were filtered at 0.5 kHz and sampled at 2 kHz (for potassium currents) or filtered at 2 kHz and sampled at 20 kHz (for sodium currents) using a four-pole low-pass Bessel filter. Leak subtraction was performed using a -P/4 protocol. Kv1.1–Kv1.6 and Shaker currents were evoked by 250 ms depolarizations to 0 mV followed by a 250 ms pulse to −50 mV, from a holding potential of −90 mV. Current traces of hERG channels were elicited by applying a +40 mV prepulse for 2 s followed by a step to −120 mV for 2 s. […] In order to investigate the current–voltage relationship, current traces were evoked by 10 mV depolarization steps from a holding potential of −90 mV. To assess the concentration dependency of the toxin induced inhibitory effects, a concentration–response curve was constructed, in which the percentage of current inhibition was plotted as a function of toxin concentration. Data were fitted with the Hill equation: y = 100/[1 + (IC50/[toxin])^h], were y is the amplitude of the toxin-induced effect, IC50 is the toxin concentration at half-maximal efficacy, [toxin] is the toxin concentration, and h is the Hill coefficient. GV curves were calculated from IV relationships as follows: gK = IK/(Em−EK) with EK = (RT/zF)ln[K #0]o/[K #0]i. In these equations gK represents the conductance, IK the potassium current, Em the membrane potential, EK the reversal potential, R the gas constant (8.31 J/K mol), T the temperature, z the charge of the ion (for K+ ions: z = 1), F the Faraday’s constant (96.500 C/mol), [K #0]o and [K #0]i respectively are the extracellular and intracellular K+ ion concentrations. The values of IK or gK were plotted as function of voltage and fitted using the Boltzmann equation: gK/gmax = [1 + exp(Vg−V)/k]−1, were gmax represents maximal gK, Vg is the voltage corresponding to half-maximal conductance, and k is the slope factor. Comparison of two sample means was made using a paired Student’s t test (P < 0.05). All data represent at least three independent experiments (n ≥ 3) and are presented as mean ± standard error.

[25] = system: Verticillium dahliae; assay: Fungal growth inhibitory assay; type: cell-based; settings: half strength PDB, 10^4 spores/mL, 48 hours, determined microscopically, n ≥ 3; read-out: IC50 (growth inhibition)
[26] = system: Saccharomyces cerevisiae BY4743 ∆frq1; assay: Yeast growth inhibitory assay; type: cell-based; settings: BY4743 ∆frq1, MM medium, 24 hours, OD490nm, mean ± SEM, n ≥ 3; read-out: IC50 (growth inhibition)
[27] = system: Saccharomyces cerevisiae BY4741 ∆prm6; assay: Yeast growth inhibitory assay; type: cell-based; settings: BY4741 ∆prm6, MM medium, 24 hours, OD490nm, mean ± SEM, n ≥ 3; read-out: IC50 (growth inhibition)
[28] = system: Saccharomyces cerevisiae BY4741 ∆sat4; assay: Yeast growth inhibitory assay; type: cell-based; settings: BY4741 ∆sat4, MM medium, 24 hours, OD490nm, mean ± SEM, n ≥ 3; read-out: IC50 (growth inhibition)
[29] = system: Saccharomyces cerevisiae BY4741 ∆tok1; assay: Yeast growth inhibitory assay; type: cell-based; settings: BY4741 ∆tok1, MM medium, 24 hours, OD490nm, mean ± SEM, n ≥ 3; read-out: IC50 (growth inhibition)

rAtPDF2.3: Arabidopsis thaliana plant defensin AtPDF2.3 produced recombinantly in Pichia pastoris (RTCESKSHRFKGPCVSTHNCANVCHNEGFGGGKCRGFRRRCYCTRHC; ends and bridges not checked; cysteine pairing not given here)
IC50 [1]: 8 ± 0.2 µM | IC50 [2]: 7 ± 0.6 µM | activity on Kv4.2 (Shal) at single concentration [3]: no effect | IC50 [4]: 8.6 ± 0.5 µM | IC50 [5]: 1.5 µM | IC50 [6]: 10.1 ± 0.5 µM | IC50 [7]: 8.1 ± 0.9 µM | activity on Kv1.3 at single concentration [8]: no effect | IC50 [9]: 4.4 ± 1.6 µM | activity on Nav1.5 [10]: does not show activity | activity on Kv1.1 at single concentration [11]: no effect | activity on Kv1.5 at single concentration [12]: no effect | activity on DmNav1 [13]: does not show activity | IC50 [14]: 8.9 ± 0.3 µM | activity on Kv2.1 (Shab) at single concentration [15]: no effect | IC50 [16]: 5.8 µM | activity on Kv1.4 at single concentration [17]: no effect | IC50 [18]: 9.1 ± 0.7 µM | IC50 [19]: 5.8 µM | IC50 [20]: 2.9 ± 0.2 µM | IC50 [21]: 3.3 µM | activity on Shaker IR at single concentration [22]: no effect | IC50 [23]: 1 ± 0.4 µM | inhibition of the potassium current ([24]; 2 μM, HK solution): 66 ± 4% | inhibition of the potassium current ([24]; 2 μM, ND96 solution): 59 ± 3% | activity on Kv1.2 at single concentration ([24]; 3 μM, n ≥ 3): can block | reversal potential EK after application of defensin ([24]; HK solution, 2 μM, Kv1.2, control −4 ± 1 mV, P > 0.05, n ≥ 4): −2 ± 1 mV | V1/2 of gV curve in the presence of defensin ([24]; ND96, 2 μM, Kv1.2, control 8 ± 3 mV, n ≤ 4 as printed): 5 ± 2 mV | reversibility of Kv1.2 block upon washout ([24]; current recovers quickly and completely upon washout (data not shown)): blocking is reversible | IC50 ([24]; read-out: IC50 for Kv1.2, two-electrode voltage-clamp, X. laevis oocytes, concentration-response curve fitted with Hill equation, mean ± standard error, n ≥ 3): 1.3 ± 0.2 µM | voltage dependence of inhibition of Kv1.2 channels ([24]; test potentials from −30 to +30 mV): not voltage-dependent | IC50 [25]: 4.4 ± 1.6 µM | IC50 [26]: 3.1 ± 0.1 µM | IC50 [27]: 7.6 ± 0.2 µM | IC50 [28]: 5.1 ± 0.1 µM | IC50 [29]: 7.7 ± 0.5 µM
